From article PMC5823406, “Vehicle development, pharmacokinetics and toxicity of the anti-invasive agent 4-fluoro-3’,4’,5’-trimethoxychalcone in rodents” (PLoS ONE, 2018)
Several values for one entry are separate records, joined by “and”; a condition that tells them apart may be missing. Identical values can stand only once. Like-named read-outs stand apart in the source and are kept apart here. Marks after values point to notes of the source that are not given here.

Experiment: Plasma PK study (IV and PO) in male Sprague-Dawley rats
Format: in vivo, rat
Description: Six male Sprague-Dawley rats (200–350 g) were obtained from Hilltop Labs. Animals were assigned randomly to two groups (IV or PO) of 3 upon arrival. Duration of acclimation was approximately two days. Animals were healthy at the start of the trial.
Animals subjected to IV dosing were fitted with a jugular vein cannula (JVC) under isoflurane anesthesia (induction 4%, maintenance 2.0%, oxygen 1 L/min) and under an external heating source. Post-operative analgesia was provided in the form of 2.5–5 mg/kg of ketoprofen subcutaneously. Benzylpenicillin (60 mg) was given intramuscularly to prevent infection. Sterile 0.9% NaCl was injected subcutaneously under the back skin using a 21G needle during recovery to replace fluid loss. Animals were placed under a heat lamp and monitored until they regained full consciousness. […] Surgically modified animals were housed individually, monitored hourly for the first 4 h and then daily over a 2-day recovery period.
Animals were maintained in a well-controlled temperature (20–24°C) and humidity (30%-70%) environment with 12 h light/dark cycles. Conventional cages with wood chip bedding were used. Animals were identified by a cage label. The study was not blinded. Food was withheld from all animals for a minimum of twelve hours prior to test article administration and returned at approximately 4 h post-dose. Water was supplied ad libitum.
C16 was dosed in cassette with two undisclosed compounds of similar chemical structure. Dosing solutions were prepared in 100% DMSO on the day of dosing. The concentration of C16 was 1 and 5 mg/mL for IV and PO dosing, respectively. C16 was administered at 1 mg/kg IV via JVC or at 10 mg/kg PO.
Sampling took place pre-dose, 5, 15, 30 min, 1, 2, 4, and 8 h post-dose. Blood samples (0.3 mL) were collected via the JVC, placed into chilled tubes containing sodium heparin and kept on ice until centrifugation. Plasma preparation involved centrifugation at a temperature of 2 to 8°C at 3,000 g for 5 min. Plasma samples were stored frozen at -70°C until analysis. No necropsy was performed.
Pharmacokinetic parameters were estimated by a non-compartmental model using WinNonlin (v5.2.1 or higher) software. The maximum plasma/blood concentrations (c0) after IV dosing were estimated by extrapolation of the first two time points back to t = 0. The maximum blood concentration (cmax) and the time to reach maximum blood drug concentration (tmax) after PO dosing were derived from the data. The area under the time-concentration curve (AUC) was calculated using the linear trapezoidal rule with calculation to the last quantifiable data point, and with extrapolation to infinity if applicable. Plasma/blood half-life (t1/2) was calculated from 0.693/slope of the terminal elimination phase. Mean residence time (MRT) was calculated by dividing the area under the moment curve (AUMC) by the AUC. Clearance (CL) was calculated from dose/AUC. Steady-state volume of distribution (Vss) was calculated from CL*MRT. Bioavailability was determined by dividing the individual dose-normalized PO AUC values by the respective average dose-normalized intravenous (IV) AUC value. Samples that were below the limit of quantification were not used in the calculation of averages, and were treated as zero for pharmacokinetic data analysis. […]
(mAU.s) (mAU.s) peak area) (mAU.s) (mAU.s) peak area) (mAU.s) (mAU.s) peak area) […]
a. Dosing solution preparation
The dosing solution was prepared as a cassette to contain all three test articles in the same solution. IV dosing was fixed at 2 mg/mL of C16 and the two other test articles in neat DMSO as the vehicle, with a dosing volume 0.5 mL/kg (slow injection). PO dosing was set at 10 mg/mL of C16 and the two other test articles in neat DMSO as the vehicle, with a dosing volume of 1 mL/kg.
Individual plasma concentrations for C16 are shown in Table F and Table G. All data are expressed as ng/mL of the […]
free drug. […]

[1] = male, Sprague-Dawley, rat, plasma, iv, 1 mg/kg, male Sprague-Dawley rat, IV 1 mg/kg, vehicle DMSO, average
[2] = male, Sprague-Dawley, rat, plasma, iv, 1 mg/kg, rat plasma, IV 1 mg/kg, individual animals 1-3
[3] = male, Sprague-Dawley, rat, plasma, po, 10 mg/kg, male Sprague-Dawley rat, PO 10 mg/kg, vehicle DMSO, average
[4] = male, Sprague-Dawley, rat, plasma, po, 10 mg/kg, male Sprague-Dawley rat, PO 10 mg/kg, vehicle DMSO, calculated for two out of three animals
[5] = plasma, male Sprague-Dawley rat, IV 1 mg/kg, vehicle DMSO, average
[6] = rat plasma, IV 1 mg/kg, individual animals 1-3, 1 mg/kg
[7] = rat plasma, PO 10 mg/kg, individual animals 4-6, 10 mg/kg
[8] = rat plasma, PO 10 mg/kg, individual animals 5-6, 10 mg/kg

For `COc1cc(C(=O)/C=C/c2ccc(F)cc2)cc(OC)c1OC` [C16, 4-fluoro-3’,4’,5’-trimethoxychalcone], which AUC(0-inf) [1] is on record?
Its AUC(0-inf) is 215 ng·h/mL.

What about the AUC(0-t) [1] of the same compound?
Its AUC(0-t) is 211 ng·h/mL.

What about the MRT last [1] of the same compound?
The MRT last was 0.76 h.

And the clearance [1]?
Its clearance is 82.5 mL/min/kg.

And the half-life [1]?
The half-life was 116 min.

And the C0 (male, Sprague-Dawley, rat, plasma, iv, 1 mg/kg, male Sprague-Dawley rat, IV 1 mg/kg, vehicle DMSO, average, extrapolated to t = 0)?
Its C0 is 1260 ng/mL.

What about the Vd (male, Sprague-Dawley, rat, plasma, iv, 1 mg/kg, plasma, male Sprague-Dawley rat, IV 1 mg/kg, vehicle DMSO, average, read-out: Vss) of the same compound?
Its Vd is 4.77 L/kg.

What about the Tmax (male, Sprague-Dawley, rat, plasma, iv, 1 mg/kg, plasma, male Sprague-Dawley rat, IV 1 mg/kg, vehicle DMSO, average, read-out: tmax) of the same compound?
The Tmax was 0 h.

What about the AUC(0-inf) [2] of the same compound?
The AUC(0-inf) was 227 ng·h/mL.

And the AUC(0-t) [2]?
Its AUC(0-t) is 224 ng·h/mL.

And the MRT last [2]?
The MRT last was 0.7 h.

And the clearance [2]?
The clearance was 73.3 mL/min/kg.

And the half-life [2]?
Its half-life is 108 min.

What about the Tmax (male, Sprague-Dawley, rat, plasma, iv, 1 mg/kg, rat plasma, IV 1 mg/kg, individual animals 1-3, read-out: tmax) of the same compound?
Its Tmax is 0 h.

What about the concentration at 0.5 h (male, Sprague-Dawley, rat, plasma, iv, 1 mg/kg, rat, IV 1 mg/kg, 0.50 h, animals 1-3, read-out: Individual plasma concentration) of the same compound?
The concentration at 0.5 h was 32.4 ng/mL.

What about the concentration at 1 h (male, Sprague-Dawley, rat, plasma, iv, 1 mg/kg, rat, IV 1 mg/kg, 1.0 h, animals 1-3, read-out: Individual plasma concentration) of the same compound?
Its concentration at 1 h is 23.1 ng/mL.

And the concentration at 2 h (male, Sprague-Dawley, rat, plasma, iv, 1 mg/kg, rat, IV 1 mg/kg, 2.0 h, animals 1-3, read-out: Individual plasma concentration)?
The concentration at 2 h was 14.3 ng/mL.

And the concentration at 4 h (male, Sprague-Dawley, rat, plasma, iv, 1 mg/kg, rat, IV 1 mg/kg, 4.0 h, animals 1-3, read-out: Individual plasma concentration)?
Its concentration at 4 h is 4.94 ng/mL.

And the concentration at 8 h (male, Sprague-Dawley, rat, plasma, iv, 1 mg/kg, rat, IV 1 mg/kg, 8.0 h, animals 1-3, read-out: Individual plasma concentration)?
Its concentration at 8 h is 1.34 ng/mL.

What about the AUC(0-t) [3] of the same compound?
The AUC(0-t) was 146 ng·h/mL.

And the MRT last [3]?
The MRT last was 3.67 h.

What about the AUC(0-inf) [4] of the same compound?
The AUC(0-inf) was 161 ng·h/mL.

And the half-life [4]?
Its half-life is 220 min.

What about the Bioavailability (male, Sprague-Dawley, rat, plasma, po, 10 mg/kg, plasma, male Sprague-Dawley rat, PO 10 mg/kg, vehicle DMSO, average, read-out: Bioavailability) of the same compound?
Its Bioavailability is 6.91%.

And the cmax (male, Sprague-Dawley, rat, plasma, po, 10 mg/kg, plasma, male Sprague-Dawley rat, PO 10 mg/kg, vehicle DMSO, average, read-out: cmax)?
Its cmax is 32.2 ng/mL.

And the Tmax (male, Sprague-Dawley, rat, plasma, po, 10 mg/kg, plasma, male Sprague-Dawley rat, PO 10 mg/kg, vehicle DMSO, average, read-out: tmax)?
Its Tmax is 2.83 h.

What about the MRT last (male, Sprague-Dawley, rat, plasma, po, 10 mg/kg, rat plasma, PO 10 mg/kg, individual animals 4-6) of the same compound?
Its MRT last is 4.92 h.

What about the concentration at 0.5 h (male, Sprague-Dawley, rat, plasma, po, 10 mg/kg, rat, PO 10 mg/kg, 0.50 h, animals 4-6, read-out: Individual plasma concentration) of the same compound?
Its concentration at 0.5 h is 22.5 ng/mL.

What about the concentration at 2 h (male, Sprague-Dawley, rat, plasma, po, 10 mg/kg, rat, PO 10 mg/kg, 2.0 h, animals 4-6, read-out: Individual plasma concentration) of the same compound?
The concentration at 2 h was 15.1 ng/mL.

What about the “Dose-normalized AUClast” value [5] of the same compound?
Its value is 211 kg·ng·h/mL/mg.

And the “Dose-normalized AUC∞” value [5]?
Its value is 215 kg·ng·h/mL/mg.

And the “Dose-normalized AUClast” value (plasma, male Sprague-Dawley rat, PO 10 mg/kg, vehicle DMSO, average)?
The value was 14.6 kg·ng·h/mL/mg.

What about the “Dose-normalized AUC∞” value (plasma, male Sprague-Dawley rat, PO 10 mg/kg, vehicle DMSO, calculated for two out of three animals) of the same compound?
Its value is 16.1 ^f h∙kg ng/mL/mg.

And the AUClast [6]?
The AUClast was 145 ng·h/mL and 264 ng·h/mL.

What about the “AUC∞” value [6] of the same compound?
Its value is 149 ng·h/mL and 269 ng·h/mL.

What about the CL [6] of the same compound?
Its CL is 6.73 L/h/kg and 3.72 L/h/kg.

What about the MRTlast [6] of the same compound?
Its MRTlast is 0.87 h and 0.71 h.

What about the Vss [6] of the same compound?
The Vss was 3.73 L/kg and 7.30 L/kg and 3.27 L/kg.

And the c0 [6]?
The c0 was 1718 ng/mL and 659 ng/mL and 1395 ng/mL.

And the t1/2 [6]?
The t1/2 was 2.00 h.

What about the AUClast [7] of the same compound?
Its AUClast is 236 ng·h/mL and 88.0 ng·h/mL and 114 ng·h/mL.

What about the Bioavailability [7] of the same compound?
Its Bioavailability is 11.2% and 4.17% and 5.39%.

And the “Dose Normalized AUClast” value [7]?
Its value is 23.6 kg·ng·h/mL/mg and 8.80 kg·ng·h/mL/mg and 11.4 kg·ng·h/mL/mg.

And the MRTlast [7]?
The MRTlast was 3.60 h and 2.48 h.

And the Tmax [7]?
Its Tmax is 8.00 h.

And the cmax [7]?
The cmax was 47.1 ng/mL and 15.9 ng/mL and 33.5 ng/mL.

What about the “AUC∞” value [8] of the same compound?
The value was 219 ng·h/mL.

What about the “Dose Normalized AUC∞” value [8] of the same compound?
Its value is 10.2 kg·ng·h/mL/mg and 21.9 kg·ng·h/mL/mg.

And the t1/2 [8]?
The t1/2 was 11.0 h.

And the “Adverse effects after intravenous and oral administration” value (rat, 1 mg/kg IV and 10 mg/kg PO, cassette in 100% DMSO)?
Its value is “No adverse effects were observed”.

And the Individual plasma concentration (rat, IV 1 mg/kg, 0.083 h, animals 1-3, 1 mg/kg)?
The Individual plasma concentration was 568 ng/mL and 345 ng/mL and 693 ng/mL.

And the Individual plasma concentration (rat, IV 1 mg/kg, 0.25 h, animals 1-3, 1 mg/kg)?
Its Individual plasma concentration is 62.1 ng/mL and 94.6 ng/mL and 171 ng/mL.

What about the Individual plasma concentration (rat, IV 1 mg/kg, 0.50 h, animals 1-3, 1 mg/kg) of the same compound?
Its Individual plasma concentration is 31.9 ng/mL and 63.2 ng/mL.

What about the Individual plasma concentration (rat, IV 1 mg/kg, 1.0 h, animals 1-3, 1 mg/kg) of the same compound?
The Individual plasma concentration was 19.1 ng/mL and 25.4 ng/mL.

And the Individual plasma concentration (rat, IV 1 mg/kg, 2.0 h, animals 1-3, 1 mg/kg)?
The Individual plasma concentration was 8.99 ng/mL and 12.6 ng/mL.

What about the Individual plasma concentration (rat, IV 1 mg/kg, 4.0 h, animals 1-3, 1 mg/kg) of the same compound?
Its Individual plasma concentration is 4.34 ng/mL and 6.41 ng/mL.

What about the Individual plasma concentration (rat, IV 1 mg/kg, 8.0 h, animals 1-3, 1 mg/kg) of the same compound?
Its Individual plasma concentration is 1.12 ng/mL and 1.58 ng/mL.

What about the Individual plasma concentration (rat, PO 10 mg/kg, 0.25 h, animals 4-6, 10 mg/kg) of the same compound?
Its Individual plasma concentration is 21.8 ng/mL and 15.9 ng/mL and 33.5 ng/mL.

What about the Individual plasma concentration (rat, PO 10 mg/kg, 0.50 h, animals 4-6, 10 mg/kg) of the same compound?
Its Individual plasma concentration is 14.8 ng/mL and 24.0 ng/mL.

What about the Individual plasma concentration (rat, PO 10 mg/kg, 1.0 h, animals 4-6, 10 mg/kg) of the same compound?
Its Individual plasma concentration is 28.3 ng/mL and 13.6 ng/mL and 22.0 ng/mL.

And the Individual plasma concentration (rat, PO 10 mg/kg, 2.0 h, animals 4-6, 10 mg/kg)?
Its Individual plasma concentration is 11.4 ng/mL and 18.2 ng/mL.

And the Individual plasma concentration (rat, PO 10 mg/kg, 4.0 h, animals 4-6, 10 mg/kg)?
The Individual plasma concentration was 27.9 ng/mL and 11.7 ng/mL and 13.6 ng/mL.

What about the Individual plasma concentration (rat, PO 10 mg/kg, 8.0 h, animals 4-6, 10 mg/kg) of the same compound?
The Individual plasma concentration was 47.1 ng/mL and 8.04 ng/mL and 5.96 ng/mL.
